Data as given in PubChem BioAssay (NCI).
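Briefly, cells in 96-well plates were exposed to five compound concentrations for 48 h, and endpoints were estimated by linear interpolation. Abbreviation: GI50, concentration required for 50% inhibition of growth. Definition used: TGI = concentration required for complete inhibition of growth.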

How the values were obtained:
Assay in all cases: NCI anticancer screen, dose series, 48 h
HCT-116 colon = system: HCT-116 colon
KM12 colon = system: KM12 colon
MCF7 breast = system: MCF7 breast
MDA-MB-231 breast = system: MDA-MB-231 breast
PC-3 prostate = system: PC-3 prostate
SF-268 CNS = system: SF-268 CNS
SF-539 CNS = system: SF-539 CNS
SK-MEL-2 melanoma = system: SK-MEL-2 melanoma
SK-MEL-28 melanoma = system: SK-MEL-28 melanoma
UACC-62 melanoma = system: UACC-62 melanoma

Row | SMILES | TGI (HCT-116 colon) | TGI (KM12 colon) | TGI (MCF7 breast) | TGI (MDA-MB-231 breast) | TGI (PC-3 prostate) | TGI (SF-268 CNS) | TGI (SF-539 CNS) | TGI (SK-MEL-2 melanoma) | TGI (SK-MEL-28 melanoma) | TGI (UACC-62 melanoma) | GI50 (HCT-116 colon) | GI50 (KM12 colon) | GI50 (MCF7 breast) | GI50 (MDA-MB-231 breast) | GI50 (PC-3 prostate) | GI50 (SF-268 CNS) | GI50 (SK-MEL-28 melanoma) | GI50 (UACC-62 melanoma) | GI50 (SF-539 CNS)
1 | CCOC(=O)C(O)(NC(=O)c1ccccc1F)C(F)(F)F (stereo not drawn) | > 100 µM | > 100 µM | > 100 µM | > 100 µM | > 100 µM | > 100 µM | > 100 µM | > 100 µM | > 100 µM | > 100 µM | – | – | – | – | – | – | – | – | –
2 | CO/N=C(\C)COc1ccc2c(=O)c(-c3ccccc3)coc2c1 | 30 µM | > 100 µM | > 100 µM | 40.9 µM | > 100 µM | 71 µM | – | – | > 100 µM | 93.6 µM | 14.8 µM | > 100 µM | 39 µM | 20.5 µM | 34.5 µM | 24.5 µM | > 100 µM | 26.3 µM | –
3 | COc1cc(C2C(C(=O)O)=C(COC(C)=O)Oc3cc4c(cc32)OCO4)cc(OC)c1OC (stereo not drawn) | > 100 µM | – | – | – | – | – | – | > 100 µM | > 100 µM | > 100 µM | – | – | – | – | – | – | – | – | –
4 | CN(C)c1ccc(C(Cc2ccc3ccccc3n2)Cc2ccc3ccccc3n2)cc1 | > 100 µM | – | – | > 100 µM | – | – | > 100 µM | – | – | > 100 µM | 2.64 µM | – | – | 5.41 µM | – | – | – | 3.77 µM | 4.74 µM
